This is an account of results in ChEMBL document CHEMBL1201862, “PubChem BioAssay data set” (2004).

Molecules are shown by their SMILES.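 96-well plates; 48 h exposure; 5 concentrations. Endpoints by linear interpolation between flanking doses. Not reached: highest tested concentration assigned. GI50: concentration for 50% inhibition of growth.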 The source made the active and inactive calls. Cut-off read from the data, not from the text of the source: active = GI50 up to about 1.1 µM and inactive = higher.

Test systems include HOP-62; OVCAR-5; ACHN; SNB-75; NCI-H522; HOP-92; A498; OVCAR-3; HCC 2998; TK-10; MCF7; SF-295; MOLT-4; NCI-H460; HT-29; SF-268; RXF 393; COLO 205; HCT-116; UACC-62.
Assay in all cases: NCI tumour cell line growth inhibition, 48 h

For the compound `CCSC(=O)N1c2ccc(OC)cc2C=CC1C#N` (stereo not given), the GI50 was 0.00841 µM (active) with HOP-62; < 0.00993 µM (active) in the experiment with OVCAR-5; 0.0041 µM (active) in the experiment on ACHN; 0.00417 µM (active) with SNB-75; 0.00698 µM (active) with NCI-H522; 0.1 µM (active) with HOP-92. In addition, the GI50 was < 0.01 µM (active) with A498; 0.001 µM (active) in the experiment on OVCAR-3; 0.00895 µM (active) in the experiment on HCC 2998; 0.00971 µM (active) with TK-10; 0.00883 µM (active) in the experiment on MCF7; 0.00405 µM (active) with SF-295. Also, the GI50 in the experiment on MOLT-4 was 0.00345 µM (active); in the experiment with NCI-H460, 0.00423 µM (active); in the experiment with HT-29, 0.00139 µM (active); in the experiment on SF-268, 0.00113 µM (active); in the experiment with RXF 393, 0.1 µM (active); in the experiment with COLO 205 it was 0.00298 µM (active). Besides, the GI50 was 0.000509 µM (active) in the experiment with HCT-116 and 0.00877 µM (active) with UACC-62.

Regarding `COc1ccc(OC)c(C2CCc3nc4nc(N)nc(N)c4cc3C2)c1` (stereo not given), the GI50 is 2.13 µM (inactive) in the experiment with HOP-62; 9.35 µM (inactive) with OVCAR-5; 12 µM (inactive) in the experiment with ACHN; 1.94 µM (inactive) with SNB-75; 2.19 µM (inactive) in the experiment with NCI-H522; 2.19 µM (inactive) in the experiment on HOP-92. Also, the GI50 in the experiment with A498 is 12.7 µM (inactive); in the experiment on OVCAR-3, 1.82 µM (inactive); in the experiment with HCC 2998 it was 1.74 µM (inactive); with TK-10, 9.77 µM (inactive); in the experiment on MCF7 it was 1.89 µM (inactive); in the experiment with SF-295 it was 11.7 µM (inactive). Further, the GI50 with MOLT-4 is 2.12 µM (inactive); with NCI-H460 it was 4.66 µM (inactive); in the experiment on HT-29, 3.01 µM (inactive); in the experiment with SF-268, 2.96 µM (inactive); in the experiment on RXF 393 it was 2.69 µM (inactive); in the experiment on COLO 205, 3.32 µM (inactive). In addition, the GI50 with HCT-116 was 1.83 µM (inactive); with UACC-62, 2.03 µM (inactive).

For the compound `COc1cc2c3c(cc(Cl)nc3c1OC)C(=O)C(=O)N2`, the GI50 in the experiment on HOP-62 was 19.6 µM (inactive); in the experiment with OVCAR-5 it was 18 µM (inactive); in the experiment with ACHN, 14.7 µM (inactive); with SNB-75, 15.7 µM (inactive); in the experiment on NCI-H522, 4.22 µM (inactive); in the experiment with HOP-92 it was 1.81 µM (inactive). In addition, the GI50 was 16.6 µM (inactive) in the experiment on A498; 16.6 µM (inactive) in the experiment with OVCAR-3; 18.2 µM (inactive) in the experiment on HCC 2998; 18.7 µM (inactive) in the experiment on TK-10; 2.05 µM (inactive) in the experiment with MCF7; 18.6 µM (inactive) with SF-295. Besides, the GI50 in the experiment on MOLT-4 was 2.34 µM (inactive); in the experiment with NCI-H460 it was 20.7 µM (inactive); in the experiment with HT-29 it was 22.4 µM (inactive); with SF-268 it was 17.4 µM (inactive); with RXF 393 it was 13.6 µM (inactive); with COLO 205, 21.9 µM (inactive). Also, the GI50 with HCT-116 is 4.33 µM (inactive); with UACC-62, 6.28 µM (inactive).

Regarding `COc1ccc2c(c1)C(=O)CC1c3cnccc3C(=O)N21` (stereo not given), the GI50 was > 27.8 µM (inactive) in the experiment with HOP-62; > 100 µM (inactive) with OVCAR-5; > 100 µM (inactive) in the experiment on ACHN; > 100 µM (inactive) with SNB-75; > 100 µM (inactive) in the experiment on NCI-H522; > 100 µM (inactive) in the experiment with HOP-92. The GI50 is > 100 µM (inactive) with A498; > 100 µM (inactive) with OVCAR-3; > 86.1 µM (inactive) with HCC 2998; > 100 µM (inactive) in the experiment on TK-10; > 100 µM (inactive) in the experiment with MCF7; > 100 µM (inactive) in the experiment on SF-295. For the same compound, the GI50 in the experiment on MOLT-4 is > 100 µM (inactive); in the experiment on NCI-H460 it was > 67.9 µM (inactive); in the experiment with HT-29 it was > 100 µM (inactive); in the experiment with SF-268, > 100 µM (inactive); in the experiment on RXF 393, > 75.9 µM (inactive); in the experiment with COLO 205, > 100 µM (inactive). The GI50 with HCT-116 was > 73.6 µM (inactive); in the experiment with UACC-62, > 63.7 µM (inactive).
